Measured values taken from PMC7321408, “One-Pot Multicomponent Synthesis and Bioevaluation of Tetrahydroquinoline Derivatives as Potential Antioxidants, α-Amylase Enzyme Inhibitors, Anti-Cancerous and Anti-Inflammatory Agents” (Molecules, 2020).
Values after ≈ are worked out from the molar mass of the structure shown.

What was measured:
[1] = system: NO generated by LPS-induced macrophages; test: Nitric oxide assay (Griess) in LPS-induced macrophages; format: cell-based, murine; conditions: for activity at 1 µM / activity at 10 µM / activity at 50 µM / activity at 100 µM: 18 h, LPS 1 µg/mL, read-out: % NO Production (Mean ± SEM)
Method: A Griess reagent, a spectrophotometric determination of nitrite level, was carried out to measure the nitrite level in the conditioned medium of macrophages treated with lipopolysaccharide (LPS). Sodium nitrite (NaNO2) was used as a standard compound for the standard curve (Figure 8). The NO concentrations were obtained using the standard curve equation: y = 0.0083x + 0.0017, R^2 = 0.9999, where y is the absorbance at 540 nm and x is the NO concentration in µM. The inhibitory activity of the tested compounds towards NO generated by LPS-induced macrophages was obtained from the calculated value of x.
The anti-inflammatory effect of the synthesized compounds in murine macrophages was evaluated by using the Griess reaction method, described previously. In brief, 1 × 10^6 were plated in a 96-well plate and incubated in a 5% CO2 incubator at 37 °C for 24 h, pre-treated with different concentrations (100 µM, 50 µM, 10 µM and 1 µM) of synthetic compounds for another 2 h and challenged with LPS (1 µg/mL) for an additional 18 h. Equal volumes of Griess reagent (1% sulphanilamide in 50% phosphoric acid and 0.1% naphthyl ethylenediamine dihydrochloride in distilled water and vortexed) and culture medium were mixed and the absorbance was taken at 540 nm. Lipopolysaccharide (LPS) was taken as a blank and piroxicam was taken as a positive control. A t-test was applied to determine the significance of the results.

[2] = system: brine shrimp nauplii; test: Brine shrimp lethality bioassay; format: in vivo; conditions: 24 h, n = 3
Method: Brine shrimp eggs were hatched in a shallow rectangular plastic dish and filled with artificial seawater, which was prepared with a commercial salt mixture. In a 96-well plate, 150 µL of artificial seawater was added and 10 nauplii were added into this. Test compounds (400, 200, 100 and 50 µg/mL) were added into each well and the final volume was made up by adding the artificial seawater. The well plate was left uncovered under a lamp. The number of surviving shrimps were counted and recorded after 24 h. The test was repeated in triplicate. […] The percentage mortality (%M) was also calculated by dividing the number of dead nauplii by the total number and then multiplied by 100.

[3] = DPPH free radical scavenging assay; conditions: mean ± SEM, n = 3; for IC50 (DPPH radical scavenging): concentration to scavenge 50% of the DPPH radicals
Method: The % free radical scavenging activity (%FRSA) of the synthetic compounds was evaluated by the discoloration of an unstable DPPH reagent to the stable yellow-colored 2,2-diphenyl-1-picrylhydrazine molecule by accepting one electron from a donor antioxidant; the mechanism is shown in Scheme 2.
The % FRSA (free radical scavenging activity) of the synthetic compounds was determined by using the method of Tai et al. with slight modifications. The antioxidant potential was determined by detecting the capacity of the synthetic compounds to quench the DPPH free radicals. The synthetic compounds were taken in a 96-well plate at three-fold concentrations of 200 µg/mL, 66.6 µg/mL, 22.2 µg/mL and 7.4 µg/mL. DPPH free radicals were added to entire wells to make up the volume up to 200 µL. DMSO and ascorbic acid were taken as negative and positive controls, respectively. The absorbance was taken at 630nm using a microplate reader (ELx800 BioTek). The percentage of scavenging activity was calculated by the given formula:% scavenging activity = (1 − Abs/Abc) × 100
Abs = sample’s absorbance; Abc = control’s absorbance.

[4] = system: carrageenan-induced paw edema; test: Carrageenan-induced paw edema (in vivo anti-inflammatory activity); design: species or system BALB/C albino mice; unit not given beside the values; conditions: 10 mg/kg, mice, n = 5
Method: At 7–8 weeks old, male BALB/C albino mice (29–35 g), were purchased from The National Institute of Health (NIH), Islamabad, Pakistan. Five animals were housed per group and placed in a controlled temperature and humidity-controlled room (22 °C and 66 ± 5%, respectively) in a 12 h light–dark cycle and provided with water and food ad libitum. Ethical approval was taken from the bio-ethical committee of Quaid-I-Azam University (Approval No. BEC-FBS-QAU2018-119) and all protocols were conducted following the Ethical Guide to the Code of Practice for the Housing and Care of Animals Act 1986 (ARRIVE (Animal Research: Reporting In Vivo Experiments) guidelines). The anti-inflammatory activity of the synthesized compounds was evaluated by using the carrageenan-induced rat paw edema assay. To determine the dose response of tetrahydroquinoline derivatives, animals were first given a dose of 0.1, 1 and 10 mg/kg against 100 µL carrageenan (1% solution in normal saline)/paw. Treatment was given 60 min before carrageenan injection. Readings were taken at 4 h post carrageenan injection. The in vivo anti-inflammatory activity was performed following the procedure described by Koksal, et al. in 2017. Paw edema was induced by injecting 100 µL of 1% sterile carrageenan solution into the right hind paw of mice. Synthesized compounds (10 mg/kg), vehicle (saline with 2% DMSO) and drug (acetylsalicylic acid, ASA 10 mg/kg) were administered to the mice orally by gastric intubation 60 min before injecting carrageenan into the right hind paw. The decrease in edema was measured by vernier calipers every 2 h.

[5] = MTT cytotoxicity against raw macrophages; format: cell-based, albino rats; conditions: albino, rat; for viability at 24 h, 1 µM / viability at 24 h, 10 µM / viability at 24 h, 50 µM / viability at 24 h, 100 µM: peritoneal macrophages (raw macrophages), raw macrophages, MTT, read-out: % Cell Viability; for IC50 at 24 h: primary peritoneal macrophages, mean ± SEM, n = 3
Method: The % cell viability of the synthetic library was evaluated in vitro by measuring the mitochondrial dehydrogenase activity (MTT test) on raw macrophages.
The cytotoxic potential was assessed by using an MTT 3-(4,5-dimethyl thiazole-2-yl)-2,5- diphenyl tetrazolium bromide assay. Briefly, macrophages were extracted from the peritoneal cavity of albino rats and plated at a density of 1 × 10^6 per well in a 96-well plate and incubated in a 5% CO2 incubator at 37 °C for 24 h. The cells were treated with various concentrations of the test compounds (100 µM, 50 µM, 10 µM and 1 µM) or vehicle alone. The test compounds were first dissolved in DMSO to make a 100 mM stock solution and then further dilutions were made from this stock solution. After 24 h of incubation, 20 µL of MTT (1 mg/mL in normal saline) was added into each well and incubated under the same conditions for 2 h. Mitochondrial succinate dehydrogenase converted MTT in live cells into purple formazan crystals. The formazan crystals were then solubilized in 100 µL DMSO, and the absorbance was measured at 570 nm. The % cell viability was calculated by the following formula; % cell viability = (abssample − absblank)/(abscontrol − absblank) × 100

[6] = system: α-amylase enzyme; test: α-Amylase enzyme inhibitory assay; format: biochemical; conditions: 200 µg/mL
Method: An in vitro α-amylase enzyme inhibitory assay was performed by the standard protocol. Four milligrams per 1 mL of sample was prepared in DMSO. In each well of a 96-well plate, synthetic compounds were added to a final concentration of 200 µg/mL. To this, 15 μL phosphate buffer, […] α-amylase enzyme and 40 μL starch solution were added stepwise. The microplate was incubated at 50 °C for 30 min. […] The formula used to calculate the percent enzyme inhibition is:% Enzyme inhibition = [(As − An) ÷ (Ab − An] × 100
As = sample’s absorbance; An = negative’s absorbance; Ab = blank’s absorbance

[7] = Mus musculus, Macrophage, 50 µM
[8] = 0 h after carrageenan injection
[9] = 2 h after carrageenan injection
[10] = 4 h after carrageenan injection
[11] = 6 h after carrageenan injection

Row | IC50 (DPPH radical scavenging) [3] | % inhibition of α-amylase enzyme [6] | SMILES | activity at 1 µM ([1]; Mus musculus, Macrophage, 1 µM) | activity at 10 µM ([1]; Mus musculus, Macrophage) | activity at 50 µM [1, 7] | activity at 100 µM ([1]; Mus musculus, Macrophage) | LD50 ± SEM (brine shrimp lethality) [2] | % DPPH Scavenging Activity ([3]; 7.4 µg/mL) | % DPPH Scavenging Activity ([3]; 22.22 µg/mL) | % DPPH Scavenging Activity ([3]; 66.66 µg/mL) | % DPPH Scavenging Activity ([3]; 200 µg/mL) | Paw thickness [4, 8] | Paw thickness [4, 9] | Paw thickness [4, 10] | Paw thickness [4, 11] | viability at 24 h, 1 µM [5] | viability at 24 h, 10 µM [5] | viability at 24 h, 50 µM [5] | viability at 24 h, 100 µM [5] | IC50 at 24 h [5] | also measured
1 | 42.55 ± 0.36 µg/mL (≈ 183 µM) | 79.97% | c1ccc2c(c1)CCCN2CN1CCOCC1 [SF2, 4-((3,4-Dihydroquinolin—1(2H)-yl)methyl) morpholine] | 32.2 ± 0.46% | 27.1 ± 0.36% | 22.1 ± 0.33% | 15.3 ± 0.29% | 141.4 ± 2.1 µg/mL | 17.44 ± 0.26% | 36.61 ± 0.22% | 58.39 ± 0.27% | 71.85 ± 0.27% | 2.05 ± 0.05 | 2.11 ± 0.06 | 2.17 ± 0.03 | 2.23 ± 0.07 | 76 ± 0.46% | 70 ± 0.91% | 60 ± 0.91% | 50 ± 1.52% | 26.8 ± 0.3 µM | –
2 | 52.75 ± 0.28 µg/mL (≈ 244 µM) | – | c1ccc2c(c1)CCCN2CN1CCCC1 [SF3, 1-(Pyrollidin-1-ylmethyl) -1,2,3,4-tetrahydroquinoline] | 33.2 ± 0.47% | 29.6 ± 0.42% | 23.8 ± 0.39% | 19.7 ± 0.37% | 102 ± 1.98 µg/mL | 3.76 ± 0.125% | 9.85 ± 0.18% | 18.32 ± 0.91% | 27.19 ± 0.31% | 2.05 ± 0.06 | 2.16 ± 0.05 | 2.22 ± 0.02 | 2.28 ± 0.07 | 83 ± 0.63% | 78 ± 0.74% | 72 ± 1.34% | 41 ± 1.07% | 29.1 ± 0.5 µM | –
3 | – | 10.51% | CC(=O)N(CN1CCCc2ccccc21)c1ccc(O)cc1 [SF13, N-((3,4-dihydroquinolin-1(2H)-yl)methyl)-N-(4-hydroxyphenyl) acetamide] | 25.1 ± 0.59% | 22.2 ± 0.52% | 15.6 ± 0.47% | 14.5 ± 0.44% | 204 ± 1.67 µg/mL | 1.98 ± 0.20% | 4.44 ± 0.18% | 11.78 ± 0.15 s % | 19.34 ± 0.34% | 2.04 ± 0.07 | 2.18 ± 0.03 | 2.26 ± 0.06 | 2.31 ± 0.07 | 85 ± 0.93% | 82 ± 0.66% | 73 ± 1.01% | 60 ± 1.24% | 41.4 ± 0.69 µM | NO level scavenged (maximum) ([1]; 50 µM): 85%; inhibition at 1 µM ([1]; Mus musculus, Macrophage, 1 µM, read-out: NO maximum inhibition): 75%
